Read-outs that look alike come from different tables or passages of the source.
Experiments:
[1] = tested on: recurrent poor prognostic prostate cancer
Protocol: Since this hormonal treatment was rendered at recurrence after radiation therapy, it is termed as secondary hormonal treatment.
Later it was reduced to 1 mg per day.

[2] = tested on: recurrent prostate cancer; assay: Serum acid phosphatase of the same patient on oral DES; assay type: in vivo, human
[3] = tested on: hormone-refractory prostate cancer; details: in vivo; cited from earlier work
[4] = tested on: prostate with cancer, prostatic volume greater than 50 cc; details: before interstitial radioactive seed implant; cited from earlier work
[5] = tested on: rat breast tumor; assay: Implantation of iodoestradiol adsorbed sponges to rat breast tumor; assay type: in vivo; details: sponges implanted to rat breast tumor; unpublished data
Source text: In U.S. Pat. No. 4,321,208 (31; Sahadevan V: Preparation of directly iodinated steroid hormones and related compounds, U.S. Pat. No. 4,321,208; 1982) this inventor has described the methods for preparation of iodinated steroid hormones including the estradiol as early as in 1976, the time of filing the patent application.

[6] = target: estrogen receptor sites (Homo sapiens, UniProt P03372); details: cited from earlier work
Sequence of estrogen receptor sites (P03372 whole entry): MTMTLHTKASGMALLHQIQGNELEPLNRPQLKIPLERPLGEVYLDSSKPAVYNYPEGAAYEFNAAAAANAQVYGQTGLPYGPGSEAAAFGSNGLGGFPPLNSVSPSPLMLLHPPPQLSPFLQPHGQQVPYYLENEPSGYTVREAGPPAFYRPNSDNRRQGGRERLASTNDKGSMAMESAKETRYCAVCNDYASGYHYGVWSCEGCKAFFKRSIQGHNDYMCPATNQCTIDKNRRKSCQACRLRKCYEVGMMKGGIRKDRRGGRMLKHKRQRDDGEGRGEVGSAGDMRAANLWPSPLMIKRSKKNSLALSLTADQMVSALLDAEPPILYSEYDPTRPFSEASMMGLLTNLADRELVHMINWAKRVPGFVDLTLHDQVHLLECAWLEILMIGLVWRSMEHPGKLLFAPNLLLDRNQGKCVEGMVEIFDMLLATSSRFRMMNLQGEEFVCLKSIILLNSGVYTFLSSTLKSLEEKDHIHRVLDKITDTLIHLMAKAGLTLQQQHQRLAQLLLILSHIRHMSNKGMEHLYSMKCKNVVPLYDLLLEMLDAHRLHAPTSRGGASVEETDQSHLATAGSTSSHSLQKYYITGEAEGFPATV

[7] = tested on: estrogen antiserum; details: cited from earlier work
[8] = DES 1 mg three times per day by mouth, four years of follow-ups
[9] = June 10, 1993, pretreatment value, before DES was started, table dose 3 mg 3× daily
[10] = September 15, 1993, DES 3 mg 3× daily (table)

Question: With `CC/C(=C(/CC)c1ccc(O)cc1)c1ccc(O)cc1` [DES, diethylstilbestrol] as the compound, how does the “PSA reduced to” value ([1]; 1 mg DES three times a day, patients with serum PSA exceeding over 300 ng per ml) read?
Answer: Its value is “less than 1 ng per ml”.

Question: And the PSA ([1]; August 4, 1996, DES 1 mg daily)?
Answer: Its PSA is >0.1 ng/mL.

Question: And the PSA ([1]; August 5, 1997, DES 1 mg daily)?
Answer: Its PSA is >0.1 ng/mL.

Question: And the “serum PSA nadir value during treatment with DES” value [1, 8]?
Answer: Its value is 0.1 ng per ml.

Question: What about the “PSA reduced to” value ([1]; DES oral dose of 1 mg daily, 363 ng per ml before treatment) of the same compound?
Answer: Its value is 0.1 ng per ml.

Question: And the PSA [1, 9]?
Answer: Its PSA is 363.0 ng/mL.

Question: And the PSA ([1]; June 13, 1994, DES 3 mg 3× daily (table))?
Answer: Its PSA is >0.1 ng/mL.

Question: And the PSA ([1]; May 3, 1995, DES 3 mg 3× daily (table))?
Answer: The PSA was >0.1 ng/mL.

Question: And the PSA ([1]; September 7, 1993, DES 3 mg 3× daily (table))?
Answer: Its PSA is 38.4 ng/mL.

Question: What about the PSA [1, 10] of the same compound?
Answer: The PSA was 4.5 ng/mL.

Question: And the PSA ([1]; September 26, 1994, DES 3 mg 3× daily (table))?
Answer: Its PSA is >0.1 ng/mL.

Question: What about the “PSA value, maintained at low nadir” value ([1]; continued DES alone, 1 mg three times a day, later 1 mg per day, maintained for four years, pretreatment 363 ng per ml) of the same compound?
Answer: The value was “less than 0.1 ng”.

Question: And the “decrease of serum PSA (FIG. 1)” value ([1]; from pretreatment 363 ng per ml, rapidly)?
Answer: The value was “normal level”.

Question: What about the “acid phosphatase nadir value during treatment with DES” value [2, 8] of the same compound?
Answer: Its value is 0.3 international unit.

Question: What about the “Acid Phosphatase” value [2, 9] of the same compound?
Answer: The value was 48.0 iu.

Question: And the “Acid Phosphatase” value [2, 10]?
Answer: Its value is 0.3 iu.

Question: What about the “decrease of serum acid phosphatase (FIG. 3)” value ([2]; from pretreatment 48 international units per ml, rapidly) of the same compound?
Answer: The value was “normal level”.

Question: What about the “serum acid phosphatase level” value ([2]; three months after DES 1 mg three times a day, pretreatment 48.0) of the same compound?
Answer: The value was < 0.3 international units per ml.

Question: What about the “effectiveness in hormone-refractory prostate cancer” value [3] of the same compound?
Answer: The value was “effective”.

Question: With LHRH as the compound, how does the “reduction of the initial prostatic volume” value [4] read?
Answer: Its value is “about 40 per cent”.

Question: For iodoestradiol, which tumor regression [5] is on record?
Answer: The tumor regression was “excellent tumor regression”.

Question: What about the “binding to estrogen receptor sites” value [6] of the same compound?
Answer: Its value is “binds”.

Question: What about the “binding to estrogen antiserum” value [7] of the same compound?
Answer: Its value is “binds”.

Reference: patent US20030147936A1, “Prostatic hormonal implants treatment of prostate cancer” (priority 2002, published 2003)
